Source: US20230158025A1 (UNIVERSITY OF UTAH RESEARCH FOUNDATION, priority 2020, published 2023)
Like-named read-outs stand apart in the source and are kept apart here.

Experiments:
recombinant human GALK1 = recombinant human GALK1 (Homo sapiens, UniProt P51570); assay: hGALK1 biochemical activity assay (Kinase-Glo Plus, ATP depletion)
Summary of the method: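 Turnover is measured as ATP depletion by Kinase-Glo Plus luminescence after a 1 h room-temperature reaction. Compounds span 11 concentrations, 57.4 μM–0.97 nM, in final 20 mM HEPES pH 8.0 with 5 mM MgCl2. The substrate solution held 35 μM ATP; the added solution held 5 nM human or mouse GALK1 and 100 μM galactose.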

recombinant mouse GALK1 = recombinant mouse GALK1 (Mus musculus, UniProt Q9R0N0); assay: mGALK1 biochemical activity assay (Kinase-Glo Plus, ATP depletion)
Sequence of recombinant mouse GALK1 (Q9R0N0 whole entry): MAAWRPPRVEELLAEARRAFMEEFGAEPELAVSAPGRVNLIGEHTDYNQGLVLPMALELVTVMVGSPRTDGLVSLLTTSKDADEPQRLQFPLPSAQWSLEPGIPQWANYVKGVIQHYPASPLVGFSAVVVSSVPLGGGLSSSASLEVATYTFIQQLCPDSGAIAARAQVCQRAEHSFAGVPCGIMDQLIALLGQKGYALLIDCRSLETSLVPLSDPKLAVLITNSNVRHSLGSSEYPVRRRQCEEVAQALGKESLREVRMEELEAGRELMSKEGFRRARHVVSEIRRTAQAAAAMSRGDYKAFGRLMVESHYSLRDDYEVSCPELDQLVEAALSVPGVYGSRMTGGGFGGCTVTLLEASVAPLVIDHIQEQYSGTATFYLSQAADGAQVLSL
Summary of the method: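 Recombinant GALK1 (5 nM) with 100 μM galactose; GALK1 turnover read as ATP depletion by Kinase-Glo Plus luminescence. Reaction ran 1 h at room temperature before detection reagent was added.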

hGALK1m [1] = molecular target: T1, hGALK1m (Homo sapiens, UniProt P51570, E253A/K252A); assay: in vitro hGALK1 activity assay of the structure-based optimisation (Example 12, Tables 17-20); type: biochemical; conditions: for fold improvement of potency (IC50) versus parent compound: increase in potency relative to the unsubstituted parent
T1 construct: made in house; host or cells: E. coli HMS174
T1 sequence (P51570 whole entry K252A/E253A): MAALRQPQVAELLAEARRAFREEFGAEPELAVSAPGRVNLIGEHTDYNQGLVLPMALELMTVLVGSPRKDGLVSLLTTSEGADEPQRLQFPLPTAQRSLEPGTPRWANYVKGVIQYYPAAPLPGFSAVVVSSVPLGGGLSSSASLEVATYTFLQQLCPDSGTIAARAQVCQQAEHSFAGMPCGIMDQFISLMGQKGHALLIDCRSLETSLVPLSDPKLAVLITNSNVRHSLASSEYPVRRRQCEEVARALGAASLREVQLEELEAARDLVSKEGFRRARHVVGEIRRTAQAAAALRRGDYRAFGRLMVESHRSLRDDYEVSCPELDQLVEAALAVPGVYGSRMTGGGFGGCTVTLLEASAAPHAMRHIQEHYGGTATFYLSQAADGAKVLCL

hGALK1m [2] = molecular target: T1, hGALK1m; assay: surface plasma resonance (SPR) binding; conditions: SPR at 4° C.
Method: Further characterization of the two lead compounds thus far, Compound 1 and Compound 3, with surface plasma resonance (SPR), confirmed that these compounds bind to hGALK1m tightly. Their KDs were 23 nM and 12 nM respectively at 4° C. (FIGS. 4A and 3B). We attempted to co-crystalize these two compounds with hGALK1m, but only succeeded with Compound 1. […] Even with a fluorine substitution at C6 position, the benzoxazole ring of Compound 1 absolutely overlapped with that of Compound A (FIG. 4D). […] The decahydroquinazoline ring was opened in Compound 1, but the hydrogen bond between ketone group and Arg 105 remained intact, and Arg 105 moved closer to the ketone group in the crystal structure with Compound 1 (FIG. 4E). In addition, the amide's nitrogen atom formed a hydrogen bond with Tyr 109 (FIG. 4E), which could clarify why substituting the closed ring with opened amide structure improves the compound's activity. The isonicotinic acid moiety extended outside of the enzyme's active center and was solvent exposed (FIG. 4C).

PAMPA permeability = conditions: PAMPA
[3] = aqueous kinetic solubility
[4] = rat microsomal stability (RLM); conditions: for half-life: rat, rat liver microsomes
[5] = recombinant human GALK1, Kinase-Glo Plus ATP depletion, read-out: hGALK
[6] = Tables 2-15, 35 μM ATP, 100 μM galactose, 1 h, bracketed figure after some values is undefined and not reported, read-out: mGALK IC50
[7] = recombinant mouse GALK1, Kinase-Glo Plus ATP depletion, read-out: mGALK
[8] = Tables 18-19, read-out: Max Response (%)
[9] = Tables 18-20 and text of Example 12
[10] = ADME P: PAMPA permeability (class), Tables 17-19, class probably colour-coded, colour lost
[11] = Tables 2-15, 35 μM ATP, 100 μM galactose, 1 h, bracketed figure after some values (e.g. −1.2) is undefined and not reported, read-out: hGALK IC50
[12] = 1 h, Table 17, read-out: Efficacy
[13] = Table 17, amide group optimization, no unit in table

Sequence of recombinant human GALK1 (P51570 whole entry): as the sequence (P51570 whole entry K252A/E253A) above, with A252K, A253E counted along it

SMILES: CC1=C(C(=O)Nc2cc(C(=O)O)ccn2)C(c2ccccc2Cl)N=C(Nc2nc3ccc(F)cc3o2)N1 (racemic) [Compound 1, 2-(4-(2-chlorophenyl)-2-((6-fluorobenzo[d]oxazol-2-yl)amino)-6-methyl-1,4-dihydropyrimidine-5-carboxamido)isonicotinic acid]
- IC50 (recombinant human GALK1; [5]): 0.68 µM
- IC50 (recombinant mouse GALK1; [6]): 4.32 µM
- IC50 (recombinant mouse GALK1; [7]): 4.32 µM
- Emax (hGALK1m [1]; [8]): 100%
- IC50 (hGALK1m [1]; [9]): 0.26 µM
- fold improvement of potency (IC50) versus parent compound (hGALK1m [1]): ~4 fold
- Kd (hGALK1m [2]): 0.023 µM
- Papp (PAMPA permeability; [10]): < 10 ×10⁻⁶ cm/s
- Papp (PAMPA permeability; Perm. (1 × 10^−6 cm/sec)): < 1 ×10⁻⁶ cm/s
- Sol. [3]: 46.1 µg/mL
- Metab. Stabil. (m) ([4]; microsomal half-life): >30 m
- half-life [4]: < 10 min

SMILES: CC1=C(C(=O)Nc2cc(C(=O)O)ccn2)C(c2ccccc2Cl)N=C(Nc2nc3cccc(N)c3o2)N1 (racemic) [Compound 3, 2(2-((7-aminobenzo[d]oxazol-2-yl)amino)-4-(2-chlorophenyl)-6-methyl-1,4-dihydropyrimidine-5-carboxamido)isonicotinic acid]
- IC50 (recombinant human GALK1; [11]): 0.22 µM
- IC50 (recombinant human GALK1; [5]): 0.22 µM
- IC50 (recombinant mouse GALK1; [6]): 3.43 µM
- IC50 (recombinant mouse GALK1; [7]): 3.43 µM
- Emax (hGALK1m [1]; [8]): 100%
- IC50 (hGALK1m [1]; [9]): 0.077 µM
- fold improvement of potency (IC50) versus parent compound (hGALK1m [1]): 13 fold
- Kd (hGALK1m [2]): 0.012 µM
- Papp (PAMPA permeability; [10]): < 10 ×10⁻⁶ cm/s
- Papp (PAMPA permeability; Perm. (1 × 10^−6 cm/sec)): < 1 ×10⁻⁶ cm/s
- Sol. [3]: >76 µg/mL
- Metab. Stabil. (m) ([4]; microsomal half-life): >30 m
- half-life [4]: < 10 min

SMILES: CC1=C(C(=O)Nc2cccc(C(=O)O)c2)C(c2ccccc2Cl)N=C(Nc2nc3ccccc3o2)N1 (stereo not shown) [Compound 142, 3-(2-(benzo[d]oxazol-2-ylamino)-4-(2-chlorophenyl)-6-methyl-1,4-dihydropyrimidine-5-carboxamido)benzoic acid]
- IC50 (recombinant human GALK1; [5]): 2.43 µM
- IC50 (recombinant mouse GALK1; [6]): 6.11 µM
- IC50 (recombinant mouse GALK1; [7]): 6.11 µM
- Emax (hGALK1m [1]; [12]): 96%
- IC50 (hGALK1m [1]; [13]): 3.1 µM
- Perm. (1 × 10^−6 cm/sec) (PAMPA permeability): <1 1 × 10^−6 cm/sec
- Papp (PAMPA permeability; [10]): < 10 ×10⁻⁶ cm/s
- Sol. ([3]; aqueous kinetic solubility): 59.1 µg/mL
- Metab. Stabil. (m) ([4]; microsomal stability half-life): >30 m
- half-life [4]: < 10 min

SMILES: CC1=C(C(=O)Nc2ccc(C(=O)O)cc2)C(c2ccccc2Cl)N=C(Nc2nc3ccccc3o2)N1 (stereo not shown) [Compound 143, 4-(2-(benzo[d]oxazol-2-ylamino)-4-(2-chlorophenyl)-6-methyl-1,4-dihydropyrimidine-5-carboxamido)benzoic acid]
- IC50 (recombinant human GALK1; [11]): 1.53 µM
- IC50 (recombinant mouse GALK1; [6]): 6.11 µM
- IC50 (recombinant mouse GALK1; [7]): 6.11 µM
- Emax (hGALK1m [1]; [12]): 100%
- IC50 (hGALK1m [1]; [13]): 1.4 µM
- Perm. (1 × 10^−6 cm/sec) (PAMPA permeability): 3.6 1 × 10^−6 cm/sec
- Papp (PAMPA permeability; [10]): < 10 ×10⁻⁶ cm/s
- Sol. ([3]; aqueous kinetic solubility): <1 µg/mL
- Metab. Stabil. (m) ([4]; microsomal stability half-life): >30 m
- half-life [4]: < 10 min

SMILES: CC1=C(C(=O)Nc2nnc(C)s2)C(c2ccccc2Cl)N=C(Nc2nc3ccccc3o2)N1 (stereo not shown) [Compound 173, 2-(benzo[d]oxazol-2-ylamino)-4-(2-chlorophenyl)-6-methyl-N-(5-methyl-1,3,4-thiadiazol-2-yl)-1,4-dihydropyrimidine-5-carboxamide]
- IC50 (recombinant human GALK1; [11]): 5.44 µM
- IC50 (recombinant mouse GALK1; [6]): 10.9 µM
- Emax (hGALK1m [1]; [12]): 95%
- IC50 (hGALK1m [1]; [13]): 3.9 µM
- Perm. (1 × 10^−6 cm/sec) (PAMPA permeability): 23.75 1 × 10^−6 cm/sec
- Papp (PAMPA permeability; [10]): < 10 ×10⁻⁶ cm/s
- Sol. ([3]; aqueous kinetic solubility): <1 µg/mL
- Metab. Stabil. (m) ([4]; microsomal stability half-life): >30 m
- half-life [4]: < 10 min

SMILES: CC1=C(C(=O)Nc2nncs2)C(c2ccccc2Cl)N=C(Nc2nc3ccccc3o2)N1 (stereo not shown) [Compound 205, 2-(benzo[d]oxazol-2-ylamino)-4-(2-chlorophenyl)-6-methyl-N-(1,3,4-thiadiazol-2-yl)-1,4-dihydropyrimidine-5-carboxamide]
- IC50 (recombinant human GALK1; [11]): 3.85 µM
- IC50 (recombinant human GALK1; [5]): 3.85 µM
- IC50 (recombinant mouse GALK1; [6]): 7.69 µM
- IC50 (recombinant mouse GALK1; [7]): 7.69 µM
- Emax (hGALK1m [1]; [12]): 96%
- IC50 (hGALK1m [1]; [13]): 3.4 µM
- Perm. (1 × 10^−6 cm/sec) (PAMPA permeability): 207.3 1 × 10^−6 cm/sec
- Papp (PAMPA permeability; [10]): < 10 ×10⁻⁶ cm/s
- Sol. ([3]; aqueous kinetic solubility): <1 µg/mL
- Metab. Stabil. (m) ([4]; microsomal stability half-life): >30 m
- half-life [4]: < 10 min

SMILES: CC1=C(C(=O)NCc2cncn2C)C(c2ccccc2Cl)N=C(Nc2nc3ccccc3o2)N1 (stereo not shown) [Compound 230, 2-(benzo[d]oxazol-2-ylamino)-4-(2-chlorophenyl)-6-methyl-N-((1-methyl-1H-imidazol-5-yl)methyl)-1,4-dihydropyrimidine-5-carboxamide]
- IC50 (recombinant human GALK1; [5]): 1.72 µM
- IC50 (recombinant mouse GALK1; [6]): 6.85 µM
- IC50 (recombinant mouse GALK1; [7]): 6.85 µM
- Emax (hGALK1m [1]; [12]): 98%
- IC50 (hGALK1m [1]; [13]): 1.4 µM
- Perm. (1 × 10^−6 cm/sec) (PAMPA permeability): 98.8 1 × 10^−6 cm/sec
- Papp (PAMPA permeability; [10]): < 10 ×10⁻⁶ cm/s
- Sol. ([3]; aqueous kinetic solubility): 42.0 µg/mL
- Metab. Stabil. (m) ([4]; microsomal stability half-life): 8.8722 m
- half-life [4]: < 10 min

SMILES: CC1=C(C(=O)NCc2nccn2C)C(c2ccccc2Cl)N=C(Nc2nc3ccccc3o2)N1 (stereo not shown) [Compound 231]
- IC50 (recombinant human GALK1; [5]): 15.3 µM
- IC50 (recombinant mouse GALK1; [6]): 13.7 µM
- IC50 (recombinant mouse GALK1; [7]): 13.7 µM
- Emax (hGALK1m [1]; [12]): 94%
- IC50 (hGALK1m [1]; [13]): 11 µM
- Perm. (1 × 10^−6 cm/sec) (PAMPA permeability): >1113 1 × 10^−6 cm/sec
- Papp (PAMPA permeability; [10]): < 10 ×10⁻⁶ cm/s
- Sol. ([3]; aqueous kinetic solubility): 23.0 µg/mL
- Metab. Stabil. (m) ([4]; microsomal stability half-life): 6.415 m
- half-life [4]: < 10 min

SMILES: CC1=C(C(=O)NCc2cncs2)C(c2ccccc2Cl)N=C(Nc2nc3ccccc3o2)N1 (stereo not shown) [Compound 232, 2-(benzo[d]oxazol-2-ylamino)-4-(2-chlorophenyl)-6-methyl-N-(thiazol-5-ylmethyl)-1,4-dihydropyrimidine-5-carboxamide]
- IC50 (recombinant human GALK1; [11]): 1.93 µM
- IC50 (recombinant human GALK1; [5]): 1.93 µM
- IC50 (recombinant mouse GALK1; [6]): 12.2 µM
- IC50 (recombinant mouse GALK1; [7]): 12.2 µM
- Emax (hGALK1m [1]; [12]): 84%
- IC50 (hGALK1m [1]; [13]): 1.2 µM
- Perm. (1 × 10^−6 cm/sec) (PAMPA permeability): 507.4 1 × 10^−6 cm/sec
- Papp (PAMPA permeability; [10]): < 10 ×10⁻⁶ cm/s
- Sol. ([3]; aqueous kinetic solubility): <1 µg/mL
- Metab. Stabil. (m) ([4]; microsomal stability half-life): 6.432 m
- half-life [4]: < 10 min

SMILES: CC1=C(C(=O)NCc2nc3ccccc3n2C)C(c2ccccc2Cl)N=C(Nc2nc3ccccc3o2)N1 (stereo not shown) [Compound 234, 2-(benzo[d]oxazol-2-ylamino)-4-(2-chlorophenyl)-6-methyl-N-((1-methyl-1H-benzo[d]imidazol-2-yl)methyl)-1,4-dihydropyrimidine-5-carboxamide]
- IC50 (recombinant human GALK1; [11]): 8.63 µM
- IC50 (recombinant human GALK1; [5]): 8.63 µM
- IC50 (recombinant mouse GALK1; [6]): 13.7 µM
- IC50 (recombinant mouse GALK1; [7]): 13.7 µM
- change of potency versus parent compound (in words) (hGALK1m [1]): significantly impaired the potency
- Emax (hGALK1m [1]; [12]): 48%
- Papp (PAMPA permeability; [10]): < 10 ×10⁻⁶ cm/s
- Sol. ([3]; aqueous kinetic solubility): <1 µg/mL
- Metab. Stabil. (m) ([4]; microsomal stability half-life): 4.516 m
- half-life [4]: < 10 min
